Results as given in patent publication US20240102022A1, “MODULATING BONE MORPHOGENIC PROTEIN (BMP) SIGNALING IN THE TREATMENT OF ALZHEIMER'S DISEASE” (CZ Biohub SF, LLC, priority 2020, published 2024).

Columns and labels:
[1] = test system: phospho-SMAD 1/5/8 in human fetal neurospheres expressing mutant APP; test: phospho-SMAD 1/5/8 immunofluorescence staining in neurospheres treated with BMP receptor inhibitor; format: cell-based; details: neurospheres treated for 1 week, different doses; FIGS. 5B and C
From the text: (§1) A human fetal neural stem cell line from University of California Irvine was developed from fetal neural tissue at 18 week gestational age enriched for CD133+ cells. The use of neural progenitor cells as non-hESC stem cells in this study is compliant to Stanford Stem Cell Research Oversight (SCRO) Protocol 194 pre-approved by the Internal Review Board (IRB)/SCRO of the Stanford Research Compliance Office (RCO). Informed consent was obtained, and standard material transfer agreement signed. Cells were grown in nonadherent ultra-low attachment well plates in X-VIVO 15 media (LONZA) supplemented with LIF (10 ng/ml), N2 Supplement, N-acetylcysteine (63 ug/ml), Heparin (2 ug/ml), EGF (20 ng/ml), and FGF (20 ng/ml).
(§2) cDNA for mutant APP harboring the Swedish and Indiana mutations was cloned into a pHIV-Zsgreen backbone obtained from Addgene. Lipofectamine 2000 was used to transduce the construct (either pHIV-Zsgreen+mutant APP or pHIV-Zsgreen alone) into H293T cells and media was collected after 48 hours. Virus was ultra-centrifuged and resuspended in PBS then titered before infecting human fetal neurospheres.
Neurospheres were cytospun onto slides and fixed in ice-cold methanol for 5 minutes. Slides were rinsed 3 times in phosphate-buffered saline (PBS) at room temperature, followed by blocking in 3% BSA in PBS for 1 hour at room temperature. […]

[2] = test system: Zsgreen control neurospheres; test: Colony counts of Zsgreen-infected control human fetal neurospheres after 1 week of treatment; format: cell-based; details: 1 week treatment; FIG. 5E
From the text: as §1, §2
Human neurospheres were dissociated into single cells and infected with either a lentiviral construct containing pHIV-Zsgreen+mutant APP or pHIV-Zsgreen alone and allowed to grow for a week. […] Colonies were counted after 7 days.

`c1ccc2c(-c3cnn4cc(-c5ccc(N6CCNCC6)cc5)cnc34)ccnc2c1` [LDN-193189] was tested, and the “pSMAD 1/5/8 level after treatment” value [1] was “substantially decreased” and the “impact on Zsgreen control neurosphere growth” value [2] was “minimal impact”.
